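Cultured in 96-well plates, cells were exposed to test compound for 48 hours across five concentrations. Here, GI50 denotes the concentration required for 50% inhibition of growth. TGI is the concentration that stops growth completely.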
system: HL-60(TB) leukemia; assay: NCI-60 cell line screen, 48 h

| SMILES | GI50 | TGI |
| --- | --- | --- |
| CC(C)(C)c1ccc(C(=O)Nc2sc3c(c2C(N)=O)CCC(=O)C3)cc1 | 0.481 µM | 4.82 µM |
| O=C(Nc1cccc(Nc2ncc(Br)c(NCCc3cnc[nH]3)n2)c1)N1CCCC1 | 3.47 µM | 24.2 µM |
| C[C@@H]1O[C@@H](O[C@H]2CC[C@@]3(C)[C@H](CCC4[C@@H]3C(O)C[C@]3(C)[C@@H](c5ccc(=O)oc5)CC[C@]43O)C2)[C@H](O)[C@H](O)[C@H]1O (stereo not given in full) | 0.0049 µM | 0.00768 µM |
| CN1CCC(n2cnc(-c3ccc(F)cc3)c2-c2ccnc(N)n2)CC1 | > 25 µM | > 25 µM |
| COc1cc(/C=C/[N+](=O)[O-])cc(Br)c1OC | 1.62 µM | > 100 µM |
| CN(CC(N)=O)C(=O)N(CCCl)N=O | – | > 100 µM |
| CC(C)=CCC/C(C)=C/CC/C(C)=C/CC/C=C(\C)CC/C=C(\C)CCC(=O)Nc1ccn(C2OC(CO)C(O)C2(F)F)c(=O)n1 (stereo not given) | 0.0618 µM | 0.539 µM |
| CC(C)(C)CN1CCn2c(nc3c(N)nccc32)S1 | 4.77 µM | 25.7 µM |
| Cc1c(C2=C(c3cn(C)c4ccccc34)C(=O)NC2=O)c2ccccc2n1C | 0.962 µM | > 25 µM |
| CC1(C)CCC[C@]2(C)[C@@H](C=O)C(C=O)=CC[C@@H]12 | – | 36.5 µM |

system: HS 578T breast; assay: NCI-60 cell line screen, 48 h

| SMILES | GI50 | TGI |
| --- | --- | --- |
| CC(=O)c1c(C(F)(F)F)n([O-])c2ccc(C)cc2[n+]1=O | 3.43 µM | > 58.5 µM |
| N/N=C1\CC(=O)NC(=O)N1 | – | > 100 µM |
| COc1ccc(/C=N/NC(=O)Cn2c(-c3ccc(S(C)(=O)=O)cc3)nc3cc(Cl)ccc32)cc1 | 1.77 µM | > 50 µM |
| COc1cc2c(c(OC)c1OC)-c1ccc(SC)c(=O)cc1[C@@H](NC1OC(CO)C(O)C(O)C1O)CC2 (stereo not given in full) | 0.0425 µM | 61 µM |
| CCOc1nc(N)nc(C)c1N=Nc1ccc(Cl)cc1 | – | 38.4 µM |
| CCN(Cc1ccc(Cl)s1)c1ccc(CO)c(Cl)c1 | 11.7 µM | > 60.4 µM |
| Nc1ccccc1SCc1csc(-c2ccc(Cl)cc2)n1 | – | > 91.5 µM |
| CSC(=S)N/N=C(\C)c1cccc(C)n1 | – | > 89 µM |
| N#Cc1c(N)[nH]c2ccc(Sc3ccccc3)cc12 | – | 25.8 µM |
| CCN1C(=O)N(CC)C2C1NN=c1s/c(=C\c3ccccc3Br)c(=O)n12 (stereo not given) | 0.0355 µM | 20.5 µM |
| O=C(O)COc1c(Cl)cc(Cl)c2cccnc12 | – | > 100 µM |
| CC(C)(C)c1ccc(C(=O)Nc2sc3c(c2C(N)=O)CCC(=O)C3)cc1 | 1.11 µM | 5.33 µM |
| O=C(Nc1cccc(Nc2ncc(Br)c(NCCc3cnc[nH]3)n2)c1)N1CCCC1 | 0.747 µM | 4.1 µM |
| C[C@@H]1O[C@@H](O[C@H]2CC[C@@]3(C)[C@H](CCC4[C@@H]3C(O)C[C@]3(C)[C@@H](c5ccc(=O)oc5)CC[C@]43O)C2)[C@H](O)[C@H](O)[C@H]1O (stereo not given in full) | < 0.00325 µM | 0.0659 µM |
| CN1CCC(n2cnc(-c3ccc(F)cc3)c2-c2ccnc(N)n2)CC1 | 15.3 µM | > 25 µM |
| COc1cc(/C=C/[N+](=O)[O-])cc(Br)c1OC | 2.9 µM | 15.9 µM |
| CN(CC(N)=O)C(=O)N(CCCl)N=O | – | > 100 µM |
| CC(C)=CCC/C(C)=C/CC/C(C)=C/CC/C=C(\C)CC/C=C(\C)CCC(=O)Nc1ccn(C2OC(CO)C(O)C2(F)F)c(=O)n1 (stereo not given) | 10.3 µM | 35.2 µM |
| CC(C)(C)CN1CCn2c(nc3c(N)nccc32)S1 | 33.6 µM | > 100 µM |
| Cc1c(C2=C(c3cn(C)c4ccccc34)C(=O)NC2=O)c2ccccc2n1C | 0.943 µM | > 25 µM |
| CC1(C)CCC[C@]2(C)[C@@H](C=O)C(C=O)=CC[C@@H]12 | – | > 100 µM |

system: KM12 colon; assay: NCI-60 cell line screen, 48 h

| SMILES | GI50 | TGI |
| --- | --- | --- |
| CC(=O)c1c(C(F)(F)F)n([O-])c2ccc(C)cc2[n+]1=O | 5.04 µM | > 52.2 µM |
| N/N=C1\CC(=O)NC(=O)N1 | – | > 100 µM |
| COc1ccc(/C=N/NC(=O)Cn2c(-c3ccc(S(C)(=O)=O)cc3)nc3cc(Cl)ccc32)cc1 | 0.979 µM | > 50 µM |
| COc1cc2c(c(OC)c1OC)-c1ccc(SC)c(=O)cc1[C@@H](NC1OC(CO)C(O)C(O)C1O)CC2 (stereo not given in full) | 0.024 µM | – |
| CCOc1nc(N)nc(C)c1N=Nc1ccc(Cl)cc1 | – | > 100 µM |
| CCN(Cc1ccc(Cl)s1)c1ccc(CO)c(Cl)c1 | 14.7 µM | 31.6 µM |
| Nc1ccccc1SCc1csc(-c2ccc(Cl)cc2)n1 | – | 47.4 µM |
| CSC(=S)N/N=C(\C)c1cccc(C)n1 | – | 42.6 µM |
| N#Cc1c(N)[nH]c2ccc(Sc3ccccc3)cc12 | – | 10.7 µM |
| CCN1C(=O)N(CC)C2C1NN=c1s/c(=C\c3ccccc3Br)c(=O)n12 (stereo not given) | 0.0236 µM | 1.5 µM |
| O=C(O)COc1c(Cl)cc(Cl)c2cccnc12 | – | > 100 µM |
| CC(C)(C)c1ccc(C(=O)Nc2sc3c(c2C(N)=O)CCC(=O)C3)cc1 | 0.55 µM | 2.34 µM |
| O=C(Nc1cccc(Nc2ncc(Br)c(NCCc3cnc[nH]3)n2)c1)N1CCCC1 | 0.869 µM | 11.5 µM |
| C[C@@H]1O[C@@H](O[C@H]2CC[C@@]3(C)[C@H](CCC4[C@@H]3C(O)C[C@]3(C)[C@@H](c5ccc(=O)oc5)CC[C@]43O)C2)[C@H](O)[C@H](O)[C@H]1O (stereo not given in full) | 0.00696 µM | 0.0157 µM |
| CN1CCC(n2cnc(-c3ccc(F)cc3)c2-c2ccnc(N)n2)CC1 | 8.64 µM | > 25 µM |
| COc1cc(/C=C/[N+](=O)[O-])cc(Br)c1OC | 3 µM | 10.1 µM |
| CN(CC(N)=O)C(=O)N(CCCl)N=O | – | > 100 µM |
| CC(C)=CCC/C(C)=C/CC/C(C)=C/CC/C=C(\C)CC/C=C(\C)CCC(=O)Nc1ccn(C2OC(CO)C(O)C2(F)F)c(=O)n1 (stereo not given) | 0.181 µM | 18.1 µM |
| CC(C)(C)CN1CCn2c(nc3c(N)nccc32)S1 | 4.23 µM | 17.1 µM |
| Cc1c(C2=C(c3cn(C)c4ccccc34)C(=O)NC2=O)c2ccccc2n1C | 3.87 µM | > 25 µM |
| CC1(C)CCC[C@]2(C)[C@@H](C=O)C(C=O)=CC[C@@H]12 | – | 31.5 µM |

Reference: PubChem BioAssay (NCI)
